# Source: patent publication US20100160401A1, “4-PHENYLIMIDAZOLE-2-THIONE TYROSINASE INHIBITORS AND TREATMENT OR PREVENTION OF PIGMENTARY DISORDERS THEREWITH” (GALDERMA RESEARCH & DEVELOPMENT, BIOT, FRANCE, priority 2007, published 2010)
# Biological target: T1, tyrosinase (Mus musculus, UniProt P11344)
# T1 construct: the supernatant obtained constitutes the cell lysate used as tyrosinase source in the enzymatic assay; endogenous in cells; host or cells: B16F1 murine melanoma cells, cultured with alpha-MSH, lysed in 1% Igepal and sonicated; the supernatant was used
# T1 sequence (P11344 19-533): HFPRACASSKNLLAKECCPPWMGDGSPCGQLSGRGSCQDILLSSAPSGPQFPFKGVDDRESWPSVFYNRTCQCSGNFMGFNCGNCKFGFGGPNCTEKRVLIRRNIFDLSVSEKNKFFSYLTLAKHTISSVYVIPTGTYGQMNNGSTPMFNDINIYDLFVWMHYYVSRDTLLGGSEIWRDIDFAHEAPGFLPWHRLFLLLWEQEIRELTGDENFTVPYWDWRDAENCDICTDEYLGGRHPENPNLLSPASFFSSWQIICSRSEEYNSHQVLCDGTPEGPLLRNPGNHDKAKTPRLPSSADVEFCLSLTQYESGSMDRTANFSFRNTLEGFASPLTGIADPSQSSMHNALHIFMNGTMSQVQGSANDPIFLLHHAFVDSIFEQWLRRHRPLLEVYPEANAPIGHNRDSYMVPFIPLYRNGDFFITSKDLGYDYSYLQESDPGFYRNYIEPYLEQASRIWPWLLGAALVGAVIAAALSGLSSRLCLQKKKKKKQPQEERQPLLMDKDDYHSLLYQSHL
# Assay: Tyrosinase activity inhibition assay (B16F1 cell lysate, L-tyrosine substrate, MBTH trapping, absorbance 520 nm)
# Format: biochemical
# Conditions: lysate of B16F1 cells (murine melanoma line) as tyrosinase source, 37° C., reading at 520 nm after 6 hours, read-out: Tyrosine hydroxylase/Dopa oxidase IC50
# Method: The activity of the inhibitors is measured starting from a lysate of B16F1 cells (murine melanoma line). In the presence of the L-tyrosine substrate, the tyrosinase present in these cells catalyses the hydroxylation of L-tyrosine to give L-DOPA and then the oxidation of the L-DOPA to give dopaquinone. In the presence of MBTH (3-methyl-2-benzothiazolinone hydrazone), the dopaquinone is trapped so as to form a pink complex which absorbs at 520 nm.
# The B16F1 cells are cultured in DMEM medium+10% foetal calf serum+10^−9 M α-MSH for 4 days at 37° C. under 7% CO2. They are treated with trypsin, washed with PBS, counted and pelleted. The pellet is taken up at 10^7 cells/ml in lysis buffer (10 mM sodium phosphate, pH 6.8-1% Igepal) and the suspension is treated with ultrasound for 10 seconds. After centrifugation for 30 minutes at 4000 rpm, the supernatant obtained constitutes the cell lysate used as tyrosinase source in the enzymatic assay.
# The assays are carried out in duplicate in 384-well plates in a total volume of 50 μl. Each well contains:
# 40 μl of solution containing 1.25 mM L-tyrosine, 6.25 μM L-DOPA (cofactor) and 3.75 mM MBTH in buffer B (62.25 mM sodium phosphate, pH 6.8-2.5% dimethylformamide),
# 5 μl of inhibitor diluted in DMSO,
# 5 μl of cell lysate diluted to ½ in 50 mM Tris HCl buffer, pH 7.5.
# The plate is incubated at 37° C. and a spectrophotometric reading is carried out at 520 nm after incubating for 6 hours. To avoid any possible absorption of the products, the system uses corrected absorbance (absorbance at time 6 h absorbance at time zero).
# The inhibitors are assayed in terms of dose-response so as to calculate an IC50 (dose which inhibits 50% of the enzymatic activity).
# Several internal controls are added to each experiment:
# control for 100% activity: the 5 μl of inhibitor are replaced with 5 μl of DMSO,
# control for 50% activity: the 5 μl of inhibitor are replaced with 5 μl of phenylthiourea at 300 μM in DMSO,
# control for 0% activity: the L-tyrosine substrate is replaced with buffer B.
row,IC50 [µM],SMILES
1,0.25,"Sc1nc(-c2ccccc2)c[nH]1 [Compound 1, 4-phenyl-1,3-dihydroimidazole-2-thione]"
2,0.9,"COc1ccc(-c2c[nH]c(=S)[nH]2)cc1 [Compound 3, 4-(4-methoxyphenyl)-1,3-dihydroimidazole-2-thione]"
3,3,"S=c1[nH]cc(-c2cccc(Br)c2)[nH]1 [Compound 4, 4-(3-bromophenyl)-1,3-dihydroimidazole-2-thione]"
4,0.3,"Fc1ccc(-c2c[nH]c(=S)[nH]2)cc1 [Compound 8, 4-(4-fluorophenyl)-1,3-dihydroimidazole-2-thione]"
5,0.6,"Cc1ccc(-c2cnc(S)[nH]2)cc1 [Compound 13, 4-(4-methylphenyl)-1,3-dihydroimidazole-2-thione]"
